Assays:
guinea pig eosinophils = experiment: Inhibitory action on eosinophils (release of active oxygen from guinea pig eosinophils); type: cell-based; details: Cavia porcellus, Eosinophil, 5 min, PAF, luminol chemiluminescence for 5 minutes
Procedure: Inhibitory activity on eosinophil activation
(A) Preparation of eosinophils
Polymyxin B (produced by Sigma) was administered intraperitoneally into a guinea pig (Hartley, male, 6-week-old) at a dosage of 1 mg once every week for 6 to 8 weeks. After the final administration of polymyxin B. 50 ml of PBS (phosphate-buffered saline) was injected into the intraperitoneal cavity of the guinea pig, and cells were recovered. The cells were centrifuged at 800 rpm for 5 minutes and the abdomen infiltration cells were collected as precipitates and then suspended in 1 ml of 40% Ficoll (40% Ficoll (produced by Pharmacia), HBSS (Hanks' balanced salt solution) and layered on a Ficoll discontinuous density gradient (40 to 90%). It was centrifuged at 1500 rpm for 40 minutes, and the eosinophil fraction was recovered. In this operation, eosinophils of 99% or more purity were usually obtained. Further, the cells were washed twice with RPMI 1640 medium (10% BSA (bovine serum albumin available from Boehringer Mannheim), suspended again at a predetermined density, and used in the objective experiment.
(B) Inhibitory action on eosinophils (inhibitory action on release of active oxygen from guinea pig eosinophils)
The eosinophils (99% or more purity) obtained by the Ficoll density gradient method in (A) above were suspended at a cell density of 4×10^5 in a buffer solution (0.136 M sodium chloride, 2.7 mM potassium chloride, 1.8 mM calcium chloride, 1.0 mM magnesium chloride, 11.9 mM sodium hydrogen carbonate, 5.5 mM D-glucose, 5.0 mM HEPES, 0.36 mM sodium dihydrogen phosphate, pH 7.2). Each drug (2 μl) and 180 μl of the cell suspension were put to a 96-well multi-well plate (for chemiluminescence measurement, white type) previously kept at 37° C., and incubated at 37° C. for 10 minutes. After incubation, 20 μl of PAF (platelet-activating factor) (5×10^-6 M) and 20 μl of a luminol solution were added to it and immediately examined for its chemiluminescence (Luminoskan Labosystem). The chemiluminescence for 5 minutes were measured to calculate 50% inhibitory concentration (IC50: μM).

rat chymase = target: T1, rat chymase (Rattus norvegicus, UniProt P09650); experiment: Inhibitory activity on rat chymase (synthetic substrate); type: biochemical; details: substrate succinyl leucyl leucyl valyl tyrosyl methylcoumarylamide; pH 8.0, 37° C., 15 min; read-out: Rat Chymase (IC50: nM), 50% inhibitory concentration
T1 construct: 50 g rat tongue was finely divided by scissors and a scalpel; from tissue; host or cells: rat tongue
T1 sequence (P09650 21-260): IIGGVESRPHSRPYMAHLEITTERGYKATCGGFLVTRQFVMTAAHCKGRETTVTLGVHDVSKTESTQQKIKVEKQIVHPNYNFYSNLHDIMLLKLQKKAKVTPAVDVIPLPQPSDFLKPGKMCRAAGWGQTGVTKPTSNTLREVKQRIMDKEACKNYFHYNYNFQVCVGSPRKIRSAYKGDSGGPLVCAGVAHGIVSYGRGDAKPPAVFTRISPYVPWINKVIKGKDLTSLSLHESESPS
Procedure: In the present invention, chymase was purified by the methods described in these literatures, and the present compounds were examined for inhibitory activity on chymase, inhibitory action on activation of mast cells and eosinophils, and pharmacological action in animals. Hereinafter, specific methods are described. […] 50 g rat tongue was finely divided by scissors and a scalpel, suspended in 0.1 M phosphate buffer (pH 8.0), and disrupted by a Polytron homogenizer for 5 minutes to prepare a crude chymase enzyme solution. […] The supernatant was applied to an octyl Sepharose 4B column (40×100 mm) previously equilibrated with 0.1 M phosphate buffer (pH 8.0) containing 2 M sodium chloride and 5% ammonium sulfate, and the protein was eluted with a linear concentration gradient of from 2 M to 0 M sodium chloride. […] (D) Measurement of inhibitory activity on chymase (a) Measurement using the synthetic substrate The synthetic chymase substrate was used for measurement of the inhibitory activity on the rat chymase as a subtrate, and the fluorescence of formed aminomethylcoumarin after reaction was measured by a spectrophotometer. […] The test was conducted several times. Chymase was prepared for each test in the manner described above. The compounds examined were compounds prepared in the above-described examples. […] Succinyl leucyl leucyl valyl tyrosyl methylcoumarylamide (for rat […] angiotensin I (for human and dog chymase)

rat mast cells = experiment: Inhibitory action on degranulation of mast cells (histamine release from rat mast cells); type: cell-based; details: Mast cell; rat peritoneal mast cells, anti-IgE antibody, 37° C.
Procedure: Inhibitory action on degranulation of mast cells
(A) Preparation of mast cells
30 ml of mast cell buffer solution (150 mM sodium chloride, 3.7 mM potassium chloride, 3.0 mM disodium hydrogen phosphate, 3.5 mM sodium dihydrogen phosphate, 5.6 mM dextrose, pH 7.0) was injected into the abdomen of a rat(SD, male, 8 to 10 week-old), and intra peritoneal cavity cells were recovered and centrifuged at 800 rpm for 5 minutes, and then the abdomen infiltration cells were recovered as precipitates. The precipitated cells were further washed twice with the mast cell buffer solution, suspended again at a predetermined density, and used in the objective experiment.
(B) Inhibitory action on degranulation of mast cells (inhibitory action on histamine release from rat mast cells)
The mast cells obtained in the procedure in (A) above were suspended at 1×10^5 cells in the mast cell buffer solution and kept at 37° C. 2 μl of each drug and 200 μl of the cell suspension were added into a 1.5 ml test tube previously kept at 37° C. and incubated at 37° C. for 10 minutes. After incubation, 2 μl anti-IgE antibody (BETHYL Lab. Inc.) was added to it and further incubated at 37° C. for 15 minutes. After the end of the reaction, the reaction mixture was immediately cooled on ice and centrifuged at 4° C. at 4000 rpm for 5 minutes, and then the supernatant was stored. Histamine in the supernatant was modified with ortho-phthalaldehyde and measured by high performance liquid chromatography to determine 50% inhibitory concentration (IC50: μM).

IC50 (guinea pig eosinophils) [µM]	IC50 (rat chymase) [nM]	IC50 (rat mast cells) [µM]	Compound
2.5	54		CN1CCN(C(=O)CCCC(=O)C(=O)C(Cc2cccc(F)c2)NC(=O)Cn2c(-c3ccccc3)ncc(N)c2=O)CC1 (stereo not shown) [Compound 69]
2.6		13	Nc1cnc(-c2ccccc2)n(CC(=O)NC(Cc2ccccc2)C(=O)C(=O)CCCN2CCOCC2)c1=O (stereo not shown) [Compound 71, 2-(5-Amino-6-oxo-2-phenyl-1,6-dihydropyrimidine-1-yl)-N-{2,3-dioxo-6-(4-morpholine-4-yl)-1-phenylmethyl}hexylacetamide]

Source: patent US6271238A, “Acetamide derivatives and protease inhibitors” (Nippon Kayaku Kabushiki Kaisha, priority 1996, dated 2001)
